These results are taken from ChEMBL document CHEMBL1140663, “Effect of the minor ABA metabolite 7'-hydroxy-ABA on Arabidopsis ABA 8'-hydroxylase CYP707A3” (Bioorg Med Chem Lett, 2007).

Experiment [1] deals with T1, Abscisic acid 8'-hydroxylase 3 (Arabidopsis thaliana, UniProt Q9FH76).
T1 sequence (Q9FH76 whole entry): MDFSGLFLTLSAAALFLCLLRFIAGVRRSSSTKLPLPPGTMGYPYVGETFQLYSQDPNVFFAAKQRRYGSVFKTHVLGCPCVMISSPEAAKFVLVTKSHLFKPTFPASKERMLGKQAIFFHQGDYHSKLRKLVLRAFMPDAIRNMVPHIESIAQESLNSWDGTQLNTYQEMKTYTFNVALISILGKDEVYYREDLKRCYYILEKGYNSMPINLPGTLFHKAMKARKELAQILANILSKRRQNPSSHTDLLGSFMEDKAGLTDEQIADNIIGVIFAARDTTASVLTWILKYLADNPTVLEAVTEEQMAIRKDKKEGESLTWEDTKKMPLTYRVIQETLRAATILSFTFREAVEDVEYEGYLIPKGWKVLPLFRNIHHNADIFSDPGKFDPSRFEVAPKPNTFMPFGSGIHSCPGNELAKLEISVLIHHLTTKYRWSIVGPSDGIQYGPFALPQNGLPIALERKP
Nature of the experiment: Inhibition of recombinant CYP707A3 at 5 uM.

For experiment [2], the target named is T1, Abscisic acid 8'-hydroxylase 3. In words: Inhibition of recombinant CYP707A3 at 50 uM.

Broadly, the inhibition is the change of the read-out against control, counted positive when it falls. Consider `CC(=C/C(=O)O)/C=C/[C@@]1(O)C(C=O)=CC(=O)CC1(C)C`, for which, in experiment [1], the inhibition at 5 µM stood at 15%. Further, the inhibition at 50 µM in experiment [2] worked out at 63%.

Turning to `CC(=C/C(=O)O)/C=C/[C@H]1C(CO)=CC(=O)CC1(C)C`, the inhibition at 5 µM in experiment [1] stood at 0%. Also, the inhibition at 50 µM in experiment [2] came to 24%.

On to `CC(=C/C(=O)O)/C=C/[C@@]1(O)C(CO)=CC(=O)CC1(C)C`, for which the inhibition at 5 µM in experiment [1] came out at 0%. The inhibition at 50 µM in experiment [2] came to 0%.
